# Measured values reported in publication PMC12388300, “The Chelating Abilities of Tertiary Amines with N-O-Donors Towards Cu(II) Ions and the Catalytic Properties of the Resulting Complexes” (Molecules, 2025).
# Like-named read-outs stand apart in the source and are kept apart here. Marks after values point to notes of the source that are not given here. Where no end group is shown, it is not given here.
# Experiments:
# [1] = Cyclic voltammetry of the Cu(II)/Cu(I) couple; type: physicochemical
# Procedure: To assess this behavior, the corresponding redox potentials were measured by cyclic voltammetry (CV), offering key insights into the electron-transfer properties of the complexes. The metal ion redox potential should ideally lie between the potential for oxidation (−0.16 V vs. NHE) (Equation (1)) and reduction (0.89 V vs. NHE) of superoxide radicals (Equation (2)).(1) O2∙−→O2+e^− (2) O2∙−+e^−+H^+→H2O2
# The key electrochemical parameters extracted from the cyclic voltammograms are summarized in Table 3, highlighting a similar redox behavior of the complexes with both ligands. However, the nature of the anion appears to influence the properties of the mononuclear species formed in situ, compared with the isolated complexes.
# Cyclic voltammetry experiments were carried out using a BAS Cell C3 EC-epsilon potentiostat equipped with a conventional three-electrode system consisting of a glassy carbon working electrode (3 mm diameter, geometric surface 7 mm^2), a platinum wire counter electrode (CE), and a silver/silver chloride reference electrode (Ag/AgCl, 3 M KCl). Voltammograms were recorded in phosphate-buffered saline (PBS; 10 mM, 150 mM NaCl, pH 7.8) containing 0.25 mM of the complex. The measurements were performed within a potential window from −600 mV to +400 mV, employing various scan rates (50 mV/s, 100 mV/s, 200 mV/s, 400 mV/s, and 800 mV/s).
# [2] = SOD activity, indirect cytochrome C (CytC) assay, xanthine/xanthine oxidase; type: biochemical; conditions: [CytC] = 10 μM, pH = 7.8
# Procedure: To reduce uncertainty about the actual active species involved in the reaction, the catalytic investigations were made with the isolated species. The ability to catalyze superoxide dismutation was assessed using the indirect cytochrome C-based assay originally introduced by McCord and Fridovich. In this kind of test, the presence of a catalyst with SOD activity, acting as a scavenger for O2^•− and generated via a xanthine/xanthine oxidase system, prevents the electron transfer to cytochrome C (Cyt C) to form […].
# (§1) Catalytic measurement assays were conducted using a Varian Cary 100 spectrophotometer with a 3 mL quartz cuvette (1 cm path length) for evaluating SOD-like activity. For the assessment of peroxidase-mimicking activity, a Varian Cary 50 instrument and identical cuvettes were utilized. To monitor the CAT-like activity, a 25 mL vial, equipped with a septum for solution injection, was used as a reactor and connected to a pressure transducer.
# [3] = CAT-like activity: O2 pressure from hydrogen peroxide dismutation; type: biochemical; design: Rmax: unit not given here; conditions: [catalyst] = 200 μM, [H2O2] = 20–30 mM in BBS 50 mM, pH = 7.8
# Procedure: The studied catalase-like activity of the complexes was evaluated by measuring the pressure resulting from the oxygen produced during the dismutation of the hydrogen peroxide. For this analysis, a borate-based buffer system (BBS 50 mM, pH 7.8) was utilized to avoid the competitive binding of phosphate anions.
# as §1, with “transducer. […]” for “transducer.”
# To monitor the CAT-like activity, a 25 mL vial was used as a reactor, connected to a pressure transducer and
# a septum for the injection.
# [4] = UV–Vis monitoring of complex stability during H2O2 dismutation; type: physicochemical; conditions: during H2O2 dismutation, BBS 50 mM pH 7.8
# Excerpt: The reaction progression was monitored by UV–Vis to gather insights into the stability of the complexes during H2O2 dismutation (Figures S45–S48 in Supplementary Materials). Analyzing the spectra recorded for the systems derived from HL1 and HL5, it is possible to observe changes in the absorption bands. In the case of the mononuclear species containing HL1, the alteration in the absorption band takes place over a comparatively extended period, in agreement with the occurrence of the delay period previously noted. The intensity associated with the π→π * electronic transition progressively diminishes, coinciding with a rise in molecular oxygen generation. Such a trend implies structural reconfiguration within the coordination environment of the complex, which appears necessary to initiate the catalytic event. On the other hand, the characteristic absorption feature vanishes after 4 h as a result of the formation of radical species. The UV–Vis profile of the complex Cu(HL5)(ClO4)2 (Figure S46) undergoes a faster modification.
# Figure S46: UV-Vis spectra of Cu(HL5)(ClO4)2 at time 0 (red) and after 7 h (light red). The colours variation represents an increment of 5 min from t=0 to t=15 min, of 15 min from t=15 to t= 45 min and 45 min from t= 45 to t=360 min.
# Conditions: [Cu(HL5)(ClO4)2]= 200 uM, [H2O2]=10mM in BBS 50mM pH=7.8. Zoom: temporal trends compared to O2 (red) and Abs (light red) on the maximum absorption at 294 nm.
# Figure S47: UV-Vis spectra of Cu2(L1)2(ClO4)2 at time 0 (blue) and after 24 hours (light blue). Every change of colors represents a temporal increase of 90 minutes. Conditions: [Cu2(L1)2(ClO4)2] = 200 µM, [H2O2] = 10 mM in BBS 50 mM, pH = 7.8. Zoom: temporal trends compared to O2 (blue) and Abs (light blue) on the maximum absorption at 288 nm.
# Figure S48: UV-Vis spectra of Cu2(L5)2(ClO4)2 at time 0 (dark green) and after 24 hours (light green). Every change of colours represents a temporal increase of 90 minutes. Conditions: [Cu2(L5)2(ClO4)2] = 200 µM, [H2O2] = 10 mM in BBS 50 mM, pH = 7.8. […]
# [5] = cited from earlier work; for IC50: CytC assay, read-out: IC50 (SOD activity)
# [6] = Potentiometric titration: protonation constants of the ligands; type: physicochemical; conditions: I = 0.1 M, 25 °C; for logβi, Lx^− + 2H^+ ⇌ [(HLx)H]^+ / logβi, Lx^− + 3H^+ ⇌ [(HLx)H2]^2+ / logβi, Lx^− + 4H^+ ⇌ [(HLx)H3]^3+ / logβi, Lx^− + H^+ ⇌ HLx: overall protonation constant, 5% v/v DMSO/H2O, HCl/KCl; for logKi, Lx^− + H^+ ⇌ HLx: stepwise protonation constant (phenolic group); for logKi, HLx + H^+ ⇌ [(HLx)H]^+ / logKi, [(HLx)H2]^2+ + H^+ ⇌ [(HLx)H3]^3+ / logKi, [(HLx)H]^+ + H^+ ⇌ [(HLx)H2]^2+: stepwise protonation constant
# Procedure: Initially, potentiometric measurements were performed to investigate the binding abilities of the ligands in an aqueous environment at different pH levels and to construct the corresponding speciation curves (Figure 1). The analyses were performed in HCl/KCl mixtures, with KCl used to maintain a constant ionic strength of 0.1 mol·dm^−3. The first step of the potentiometric studies was the assessment of the acid-base properties of both ligands. The overall and stepwise protonation constants are collected in Table 1.
# (§2) Potentiometric measurements were performed using a Metrohm pH-meter system equipped with a semi-micro combination electrode, at 25 °C. The system was calibrated based on hydrogen ion concentration using HCl. Ligands were prepared in a 5% (v/v) DMSO solution with water containing HCl/KCl with a constant ionic strength of I = 0.1 M to achieve a final concentration of 1 mM and 0.6 mM of HL1 and HL5, respectively. Titrations were conducted by incrementally adding 0.1 M KOH using a microsyringe at 25°C, spanning a pH interval from 2.5 to 11.5, under an argon atmosphere. The stability constants and complex stoichiometries were determined from the titration data using the SUPERQUAD and HYPERQUAD programs.
# [7] = Potentiometric titration: stability constants and speciation of in situ-formed Cu(II) complexes; type: physicochemical; conditions: for logβi of [Cu(HLx)H]^3+ / logβi of [Cu(HLx)]^2+ / logβi of [Cu(Lx)(OH)2]^− / logβi of [Cu(Lx)(OH)] / logβi of [Cu(Lx)]^+: overall stability constant, in situ-formed complex, I = 0.1 M, 25 °C; for pH of maximum concentration of [Cu(HLx)H]^3+: speciation curves, ligand/copper(II) 1:1; for pKi of [Cu(Lx)(OH)2]^− / pKi of [Cu(Lx)(OH)] / pKi of [Cu(Lx)]^+ / pKi of [Cu(HLx)]^2+: stepwise stability constant; for pKi of [Cu(HLx)]^2+: [Cu(HLx)H]^3+ ⇄ [Cu(HLx)]^2+ + H^+
# Procedure: Based on the potentiometric studies, the overall and stepwise stability constants of formed complexes were obtained and collected in Table 2; the speciation curves of in situ-formed complexes are presented in Figure 2.
# as §2
# [8] = [Catalyst] = 100 μM, [H2O2] = 30 mM, MOPS buffer (50 mM, pH 7.5); cited from earlier work
# [9] = vs NHE, PBS 10 mM, 150 mM NaCl, pH 7.8, 0.25 mM complex
Compound,IC50 [5],Log (kcat) [5],"logβi, Lx^− + 2H^+ ⇌ [(HLx)H]^+ [6]","logβi, Lx^− + 3H^+ ⇌ [(HLx)H2]^2+ [6]","logβi, Lx^− + 4H^+ ⇌ [(HLx)H3]^3+ [6]","logβi, Lx^− + H^+ ⇌ HLx [6]","logKi, Lx^− + H^+ ⇌ HLx [6]","logKi, HLx + H^+ ⇌ [(HLx)H]^+ [6]","logKi, [(HLx)H2]^2+ + H^+ ⇌ [(HLx)H3]^3+ [6]","logKi, [(HLx)H]^+ + H^+ ⇌ [(HLx)H2]^2+ [6]",logβi of [Cu(HLx)H]^3+ [7],logβi of [Cu(HLx)]^2+ [7],logβi of [Cu(Lx)(OH)2]^− [7],logβi of [Cu(Lx)(OH)] [7],logβi of [Cu(Lx)]^+ [7],pH of maximum concentration of [Cu(HLx)H]^3+ [7],pKi of [Cu(Lx)(OH)2]^− [7],pKi of [Cu(Lx)(OH)] [7],pKi of [Cu(Lx)]^+ [7],pKi of [Cu(HLx)]^2+ [7],further results
Oc1ccccc1CN(Cc1ccccn1)Cc1ccccn1.[Cu+2].[O-][Cl+3]([O-])([O-])[O-].[O-][Cl+3]([O-])([O-])[O-] [Cu(HL1)(ClO4)2],–,–,–,–,–,–,–,–,–,–,–,–,–,–,–,–,–,–,–,–,"ΔE ([1]; Epc − Epa, PBS pH 7.8): −0.085 V; │ia/ic│ ([1]; peak current ratio, PBS pH 7.8): 0.61; E1/2 ([1]; vs NHE, E1/2=(Epc+Epa)/2, PBS pH 7.8): −0.135 V; Epa [1, 9]: −0.092 V; Epc [1, 9]: −0.177 V; IC50 ([2]; CytC assay, [xanthine] = 40 μM, [xanthine oxidase] = 0.0053 U/mL, phosphate buffer 50 mM): 1410 nM; Log (kcat) ([2]; kcat(O2•−)=kCytC·[CytC]/IC50, kCytC=2.6×10^5 M^−1s^−1): 6.27 ^h; Time (to maximum O2 production) [3]: 950 min; Induction Time ([3]; triplicate, ±10% error): 250 min; O2 generated ([3]; triplicate, ±10% error): 7.6 mmol/L; Rmax ([3]; triplicate, ±10% error): 0.25; time after which the characteristic absorption feature vanishes [4]: 4 h"
O=S(=O)([O-])[O-].[Cu+2] [CuSO4],72200 nM,~6,–,–,–,–,–,–,–,–,–,–,–,–,–,–,–,–,–,–,–
"Oc1ccccc1CN(Cc1ccccn1)Cc1ccccn1 [HL1, N-(2-hydroxylbenzyl)-N,N-bis(2-pyridylmethyl)amine]",–,–,16.29 ± 0.02,21.53 ± 0.02,25.24 ± 0.02,9.99 ± 0.01,9.99,6.30,3.71,5.24,22.67 ± 0.06,16.84 ± 0.08,−10.42 ± 0.09,0.03 ± 0.09,9.73 ± 0.08,4.5,10.45,9.70,7.11,5.83,"metal ion binding efficiency in the competition diagram ([7]; HL1:Cu(II):HL5 molar ratio 1:1:1, pH 3 to 11): significantly less efficient in metal ion binding"
"COc1cccc(CN(Cc2ccccn2)Cc2ccccn2)c1O [HL5, 2-{[Bis(pyridin-2-ylmethyl)amino]methyl}-6-methoxyphenol]",–,–,15.77 ± 0.02,20.71 ± 0.02,24.43 ± 0.02,9.52 ± 0.01,9.52,6.25,3.72,4.94,23.43 ± 0.08,18.04 ± 0.10,−8.56 ± 0.11,1.77 ± 0.11,11.51 ± 0.10,3.5,10.33,9.74,6.53,5.39,–
O=C([O-])CCN(Cc1ccccn1)Cc1ccccn1.[Cu+2] [[Cu(BPMPA)]^+],1040 nM,7.09,–,–,–,–,–,–,–,–,–,–,–,–,–,–,–,–,–,–,–
(CATm1)Cu2: di-copper complex of CATm1 = peptide sequence PHYKHRLH (also: di-copper complex),–,–,–,–,–,–,–,–,–,–,–,–,–,–,–,–,–,–,–,–,O2 generated [8]: 0.3 mmol/L; Rmax [8]: 273 µM/min; Time [8]: 3 min
